In PMC6222558, “Synthesis and Evolution of Berberine Derivatives as a New Class of Antiviral Agents against Enterovirus 71 through the MEK/ERK Pathway and Autophagy” (Molecules : A Journal of Synthetic Chemistry and Natural …, 2018):
Structures can show the parent of a compound that is named as a salt.

Columns and labels:
[1] = system: Vero cells; test: Cytotoxicity assay (CCK) in Vero cells; type: cell-based, African green monkey; conditions: Vero cells; calculated on the organic part; n = 3
Procedure: (§1) Vero cells were purchased from the American Type Culture Collection (ATCC, […], MD, USA), and were cultured in Minimum Essential Medium (MEM) supplemented with 10% fetal bovine serum (FBS) (GIBCO, Grand Island, NY, USA) and antibiotics (100 U/mL penicillin and […] streptomycin) at 37 °C in a 5% CO2 incubator. EV71 strain SHZH98 isolated from the throat swab sample of an HFMD case occurring in 1998 in China was kindly provided by Dr. Qi Jin (Institute of Pathogen Biology, Chinese Academy of Medical Science and Peking Union Medical School, Beijing, China), and JS-52 strain was a kind gift from Dr. Xiangzhong Ye (Beijing Wantai Biological Pharmacy Enterprise Co., Ltd., Beijing, China). The EV71 BrCr and H strains were purchased from the ATCC. All of EV71 strains were passaged in Vero cells.
Cytotoxicity of all target compounds in Vero cells was analyzed by CCK (TransGen Biotech, Beijing, China) assay. In brief, cells in exponential phase (3 × 10^4 cells/well) were seeded into 96-well culture plates and incubated overnight. Then, the medium was removed and different concentrations of all target compounds were applied in duple. After 48 h incubation, the cytotoxicity of all target compounds was determined by CCK assay. The signals were read at 450 nm on Enspire (Perkin Elmer, Waltham, MA, USA). The TC50 was defined as the concentration that inhibits 50% cellular growth in comparison with the controls. It is calculated by the Reed and Muench method.

[2] = system: EV71 H strain (VR-1432, genotype C2); test: CPE inhibition assay for anti-EV71, H strain; type: cell-based, enterovirus 71 (EV71); conditions: Enterovirus A, EV71; Vero cells; CPE; calculated on the organic part; n = 3; read-out: H Strain IC50
Procedure: (§2) Thus, all newly synthesized BBR analogues were screened for their anti-EV71 potencies in African green monkey kidney (Vero) cells taking BBR as the positive control. EV71 strains used in the present study include different genotype strains, such as H strain (VR-1432, genotype C2), BrCr strain (VR-1775, genotype A), and JS-52 and SHZH98 (genotype C4). The potency against EV71 strains above mentioned of each tested compound was evaluated by the combination of its IC50 and selectivity index (SI) value as the important therapeutic indication.
as §1
(§3) The anti-EV71 activities of all tested compounds were detected by the virus-induced CPE assay. Briefly, cells (3 × 10^4 cells/well) were plated into 96-well culture plates and incubated for 16 h. Then, remove the medium and infected cells with EV71 of 100 × TCID50 (50% tissue culture infective doses) in serum-free medium for 1 h at 37 °C. After that, the unbound viruses were removed and various concentrations of tested compounds were supplemented for incubation of another 72 h. […] TC50 defined as the concentration that leads to the 50% of CPE which determined by the same method in 72 h. In addition, the cells were stained the cells were colored with 0.5% crystal violet in 20% ethanol for 15 min at room temperature and the cells were imaged after rinsed with PBS.

[3] = system: EV71 JS-52 strain (genotype C4); test: CPE inhibition assay for anti-EV71, JS-52 strain; type: cell-based, enterovirus 71 (EV71); conditions: Enterovirus A, EV71; Vero cells; CPE; calculated on the organic part; n = 3; read-out: JS-52 Strain IC50
Procedure: as §2, §1, §3

[4] = system: EV71 SHZH98 strain (genotype C4); test: CPE inhibition assay for anti-EV71, SHZH98 strain; type: cell-based, enterovirus 71 (EV71); conditions: Enterovirus A, EV71; Vero cells; CPE; calculated on the organic part; n = 3; read-out: SHZH98 Strain IC50
Procedure: as §2, §1, §3

[5] = system: EV71 BrCr strain (VR-1775, genotype A); test: CPE inhibition assay for anti-EV71, BrCr strain; type: cell-based, enterovirus 71 (EV71); conditions: Enterovirus A, EV71; Vero cells; CPE; calculated on the organic part; n = 3; read-out: BrCr Strain IC50
Procedure: as §2, §1, §3

[6] = system: four different genotype enterovirus 71 (EV71) strains; test: CPE assay, summary over the four EV71 strains; type: cell-based; conditions: Enterovirus A, EV71, read-out: IC50 (Figure 1)
Procedure: as §2, §3

[7] = system: MEK/ERK signaling pathway; set-up: method as in PMID 28081706; conditions: cited from earlier work

| Structure (SMILES) | TC50 (median toxic concentration) [1] | IC50 [2] | IC50 [3] | IC50 [4] | IC50 [5] | IC50 [6] | phosphorylation of MEK/ERK induced by EV71 infection [7] | melting point |
| --- | --- | --- | --- | --- | --- | --- | --- | --- |
| COc1ccc2cc3[n+](cc2c1OC)CCc1cc2c(cc1-3)OCO2 [BBR, berberine] | 147 µM | 21.2 µM | 14 µM | 28.2 µM | 9.45 µM | 8.55 to 25.5 µM | could inhibit the phosphorylation of MEK/ERK |  |
| COc1cc2c(cc1OCC(=O)C(C)(C)C)CC[n+]1cc3c(OC)c(OC)ccc3cc1-2 (as salt: chloride) [5b, 2,9,10-Trimethoxy-3-pivalylmethylenoxy protoberberine chloride] |  |  |  |  |  |  |  | 223 to 225 °C |
| COc1cc2c(cc1OC)-c1cc3ccc(OC)c(OCC(=O)c4ccc(C(F)(F)F)cc4)c3c[n+]1CC2 (as salt: chloride) [4f, 2,3,10-Trimethoxy-9-p-trifloromethylphenylformylmethylenoxy protoberberine chloride] |  |  |  |  |  |  |  | 240 to 242 °C |
